Laboratory results taken from patent publication US20130142717A1, “OFFSHORE GAS SEPARATION PROCESS” (priority 2011, published 2013).
Where two headings read alike, the source gives them in different places.

Tests used:
[1] = tested on: Daphnia sp.; details: for Classification (aquatic toxicity): based on Daphnia 48 hours EC50
[2] = tested on: Fish; test: Experimental fish 96-hour acute toxicity (values in brackets in Table 4); format: in vivo; details: experimental result (value in brackets)

Molecule | Classification (aquatic toxicity) [1] | Biodegradability (day 0, 20° C.) | Biodegradability (day 1, 20° C.) | Biodegradability (day 2, 20° C.) | Biodegradability (day 3, 20° C.) | Biodegradability (day 4, 20° C.) | Biodegradability (day 5, 20° C.) | Biodegradability (day 6, 20° C.) | Biodegradability (day 7, 20° C.) | Biodegradability (day 8, 20° C.) | Biodegradability (day 9, 20° C.) | Biodegradability (day 10, 20° C.) | Biodegradability (day 11, 20° C.) | Biodegradability (day 12, 20° C.) | Biodegradability (day 13, 20° C.) | Biodegradability (day 14, 20° C.) | Biodegradability (day 15, 20° C.) | Biodegradability (day 16, 20° C.) | Biodegradability (day 17, 20° C.) | Biodegradability (day 18, 20° C.) | also measured
Ethoxyethanol-tert-butylamine (tert-butylamino-ethoxy-ethanol) | Harmful to aquatic | 0 | 0.05 | 0.00 | 0.00 | 0.00 | 0.00 | 0.00 | 0.06 | 1.68 | 3.34 | 0.47 | 0.56 | 0.76 | 0.91 | 1.04 | 1.16 | 1.33 | 1.51 | 1.56 | Daphnia 48-hour LC50 ([1]; experimental result (value in brackets)): 31.6 µg/mL; Fish 96-hour LC50 [2]: 225 µg/mL; Biodegradability (day 19, 20° C.): 1.58; Biodegradability (day 20, 20° C.): 1.71; Biodegradability (day 21, 20° C.): 1.89; Biodegradability (day 22, 20° C.): 2.00; Biodegradability (day 23, 20° C.): 1.95; Biodegradability (day 24, 20° C.): 2.00; Biodegradability (day 25, 20° C.): 2.06; Biodegradability (day 26, 20° C.): 2.06; Biodegradability (day 27, 20° C.): 2.06; Biodegradability (day 28, 20° C.): 2.06
CC(C)(C)NCCOCCOCCNC(C)(C)C [D, Bis-(t-butylamino ethoxy)ethane (bis-(t-butylamino)triethylene glycol)] | Harmful to aquatic |  |  |  |  |  |  |  |  |  |  |  |  |  |  |  |  |  |  |  | 
COCCOCCOCCNC(C)(C)C [B, Methoxyethoxyethoxyethanol-tert-butylamine] | No classification | 0 | 0.00 | 0.20 | 0.30 | 0.60 | 1.02 | 1.54 | 2.09 | 3.00 | 3.81 | 1.89 | 3.82 | 4.04 | 4.70 | 5.70 | 6.03 | 6.56 | 7.14 | 7.65 | Daphnia Experimental, 48 hours, EC50 ([1]; experimental, 48 hours): EC50 > 100 mg/l; Biodegradability (day 19, 20° C.): 9.52; Biodegradability (day 20, 20° C.): 7.55; Biodegradability (day 21, 20° C.): 7.55; Biodegradability (day 22, 20° C.): 7.55; Biodegradability (day 23, 20° C.): 7.55; Biodegradability (day 24, 20° C.): 7.55; Biodegradability (day 25, 20° C.): 7.55; Biodegradability (day 26, 20° C.): 7.55; Biodegradability (day 27, 20° C.): 7.55; Biodegradability (day 28, 20° C.): 7.55
